This assay has as its target FFA1 (GPR40) (Homo sapiens, UniProt O14842). Description: aequorin calcium luminescence assay, CHO cells. Format: cell-based.

Sequence of FFA1 (GPR40) (O14842 whole entry): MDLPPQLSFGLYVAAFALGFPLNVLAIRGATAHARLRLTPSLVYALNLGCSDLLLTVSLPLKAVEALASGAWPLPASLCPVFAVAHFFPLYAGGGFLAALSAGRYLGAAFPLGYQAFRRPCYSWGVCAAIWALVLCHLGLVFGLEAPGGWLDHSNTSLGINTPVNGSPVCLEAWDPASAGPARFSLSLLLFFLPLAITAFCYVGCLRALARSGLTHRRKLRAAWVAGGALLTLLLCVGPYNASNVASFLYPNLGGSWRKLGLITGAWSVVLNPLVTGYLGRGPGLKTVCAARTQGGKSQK

Take `CC/C=C\C/C=C\C/C=C\C/C=C\C/C=C\C/C=C\CCC(=O)O` [DHA]: the 50% effective concentration (EC50) worked out at 40 µM.

Usually EC50 stands for the midpoint of the concentration-response curve.

The record behind these values is paper doi:10.1101/2024.12.09.627639v1 (biorxiv, 2024).
